Among the data in ChEMBL document CHEMBL2407004, “3-Acyl-5-hydroxybenzofuran derivatives as potential anti-estrogen breast cancer agents: a combined experimental and theoretical investigation” (Bioorg Med Chem Lett, 2013) are IC50 values, retold here.

One may read the IC50 as the concentration at which inhibition is half-maximal. A high value points to weaker potency in that assay.

The subject of this experiment is MCF7. The experiment can be described thus: Antiproliferative activity against human MCF7 cells after 48 hrs by MTT assay. It counts as functional, cell-based. Particulars: MCF7, 48 h. A general note: Tetrazolium assays rely on reduction of a dye to a coloured formazan, in cell work by metabolically active cells.
`COc1cc2occ(C(=O)c3cccc(NC(C)=O)c3)c2cc1O` had an IC50 of 43.1 µM.

`COc1cc2occ(C(=O)/C=C/c3ccccc3)c2cc1O` yielded an IC50 of 167 µM.

For `COc1cc2occ(C(=O)/C=C/c3cccc(Cl)c3)c2cc1O`, 464 µM corresponded to half-maximal inhibition (IC50).

As to `O=C(/C=C/c1cccc(Cl)c1)c1coc2cc(F)c(O)cc12`, the IC50 was found to be 644 µM.

`COc1ccc(/C=C/C(=O)c2coc3cc(F)c(O)cc23)cc1` had an IC50 of 814 µM.

In the case of `COc1cc2occ(C(=O)c3ccc(-c4ccccc4)cc3)c2cc1O`, the IC50 was 1660 µM.

`COc1cc2occ(C(=O)/C=C/c3ccc4c(c3)OCO4)c2cc1O` had an IC50 of 2110 µM.

In turn, `CC/C(=C(\c1ccccc1)c1ccc(OCCN(C)C)cc1)c1ccccc1` [TAMOXIFEN] registered an IC50 of 12.3 µM.
